Counter-ions that a name gives are not always drawn.
Tests used:
[1] = test system: HCT115 ER-E2F1 cells; experiment: E2F1-induced apoptosis assay (ER-E2F1 activated by 4-OHT), FACS subG1; assay type: cell-based; conditions: for E2F1 Induced apoptosis % Apoptosis: without 4-OHT (value before the parentheses), 'No activity'; for E2F1 Induced apoptosis (+4-OHT) % Apoptosis: with 4-OHT (value in parentheses)
From the text: Two assays were used to measure the compound's activity in induce apoptosis. The first assay measures the activity of compound to activate E2F1-induced apoptosis. In this assay, transcription factor E2F1 was engineered with ER receptor ligand binding domain. Addition of 4-OHT will be able to activate ER-E2F1 complex activity.
Fluorescence activated cell sorting (FACS) also known as flow cytometry is the technique used to determine apoptosis in this set of experiments. Apoptosis is indicated by cell populations with DNA content in the subG1 range. To determine the activity of these compounds, the inventors used HCT115 ER-E2F1 cells to determine the activity of the compound in inducing E2F1-dependent apoptosis. In this assay, addition of 4-OHT ligand will activate E2F1. DZNep has been show previously to activate OHT-induced apoptosis in this system.

[2] = test system: colon cancer cells; experiment: Apoptosis induction in combination with histone deacetylase inhibitor TSA; assay type: cell-based; conditions: 48 h
From the text: The compound may show activity to activate E2F1-induced apoptosis of at least about 15%, or at least about 20 or 25%, or about 15 to 25%, 15 to 30%, 15 to 20% or 20 to 25%. In this context, transcription factor E2F1, which is involved in the action of tumour suppressing proteins, was engineered with ER receptor ligand binding domain. (ER receptor is a nuclear hormone type of intracellular oestrogen receptor.) The compound may show activity to activate E2F1-induced apoptosis in the presence of 4-OHT of at least about 25% or of at least about 30, 40, 50, 60, 70 or 80%, or of about 25 to about 80%, or about 30 to 80, 50 to 80, 60 to 80 or 50 to 70%, e.g. about 25, 30, 35, 40, 45, 50, 55, 60, 65, 70, 75, 80 or 85%. 4-OHT is 4-hydroxytamoxifen, an anti-estrogenic metabolite of tamoxifen with a much higher affinity for oestrogen receptors than tamoxifen itself. The compound may show apoptosis induction in colon cancer cells with histone deacetylase inhibitor TSA (Trichostatin A) of at least about 40%, or at least about 50, 60, 70 or 80%, or about 40 to about 90%, or about 50 to 90, 70 to 90, 40 to 60 or 50 to 80%, e.g. about 40, 50, 60, 70, 80 or 90%. It may be capable of inhibiting the function of Polycomb repressive complex 2 (PRC2) proteins. In this context, activity % refers to the percentage of cell undergoing apoptosis (death) under the combination drug treatment of DZNep analogue with TSA for 48 h.
The second assay was designed to measure synergistic effect of new compounds with histone deacetylase inhibitor TSA for apoptosis induction in colon cancer cells. DZNep is known to synergy with TSA to induce strong apoptosis in colon cancer cells ((Jiang et al., Cancer Cell, 13, 529-541, 2008). Again the new compounds are compared with DZNep in the context of inducing apoptosis with TSA. Assays were conducted in accordance with Jiang et al (above).

SMILES	E2F1 Induced apoptosis % Apoptosis [1]	Combination with HDAC inhibitor TSA % Apoptosis [2]	E2F1 Induced apoptosis (+4-OHT) % Apoptosis [1] [%]
Nc1ncnc2c1ncn2C1C=CCC1 (racemic) [Compound 29, (±)-9-(cyclopent-2-enyl)-9H-purin-6-amine]	No activity	No activity	–
CC1(C)O[C@H]2[C@H](n3cnc4c(N)ncnc43)CC[C@H]2O1 (racemic) [Compound 30, (±)-9-(2,2-dimethyl-tetrahydro-3aH-cyclopenta[d][1,3]dioxol-4-yl)-9H-purin-6-amine]	No activity	No activity	–
CC1(C)O[C@H]2[C@H](CC[C@H]2n2cnc3c(N)ncnc32)O1 (racemic) [Compound 31, (±)-9-(2,2-dimethyl-tetrahydro-3aH-cyclopenta[d][1,3]dioxol-4-yl)-9H-purin-6-amine]	No activity	No activity	–
Nc1ncnc2c1ncn2[C@@H]1CC[C@@H](O)[C@H]1O (racemic) [Compound 32, (±)-(1R,2S,3R)-3-(6-Amino-9H-purin-9-yl)-1,2-cyclopentanediol hydrochloride]	–	–	44
Nc1ncnc2c1ncn2[C@@H]1CC[C@H](O)[C@@H]1O (racemic) [Compound 33, (±)-(1R,2S,3S)-3-(6-Amino-9H-purin-9-yl)-1,2-cyclopentanediol hydrochloride]	No activity	No activity	–
CC1(C)O[C@@H]2[C@H](O1)C(COC(c1ccccc1)(c1ccccc1)c1ccccc1)=C[C@H]2n1cnc2c(Cl)nccc21 [Compound 1]	No activity	–	–
CC1(C)O[C@@H]2[C@H](O1)C(COC(c1ccccc1)(c1ccccc1)c1ccccc1)=C[C@H]2n1cnc2cncc(Cl)c21 [Compound 2]	No activity	–	–
OCC1=C[C@@H](n2cnc3c(Cl)nccc32)[C@H](O)[C@@H]1O [Compound 3]	No activity	No activity	–
OCC1=C[C@@H](n2cnc3ccnc(Cl)c32)[C@H](O)[C@@H]1O [Compound 4]	No activity	No activity	–
COC(=O)c1cn([C@@H]2C=C(CO)[C@@H](O)[C@H]2O)nn1 [Compound 5]	No activity	No activity	–
COC(=O)c1cn([C@@H]2C=C(CO)[C@@H](O)[C@H]2O)cn1 [Compound 6]	No activity	No activity	–
COC(=O)c1ncn([C@@H]2C=C(CO)[C@@H](O)[C@H]2O)n1 [Compound 7]	No activity	No activity	–
O=C(c1ccccc1)n1c(=O)ccn([C@@H]2C=C(CO)[C@@H](O)[C@H]2O)c1=O [Compound 8]	No activity	No activity	–
Cc1cn([C@@H]2C=C(CO)[C@@H](O)[C@H]2O)c(=O)n(C(=O)c2ccccc2)c1=O [Compound 9]	No activity	No activity	–
Cc1cn([C@@H]2C=C(CO)[C@@H](O)[C@H]2O)c(=O)[nH]c1=O [Compound 10]	No activity	No activity	–
O=c1[nH]cnc2c1ncn2[C@@H]1C=C(CO)[C@@H](O)[C@H]1O [Compound 11]	No activity	No activity	–

SMILES	E2F1 Induced apoptosis % Apoptosis [1]	Combination with HDAC inhibitor TSA % Apoptosis [2]	E2F1 Induced apoptosis (+4-OHT) % Apoptosis [1] [%]
O=c1ccn([C@@H]2C=C(CO)[C@@H](O)[C@H]2O)c(=O)[nH]1 [Compound 12]	No activity	No activity	–
NC(=O)c1ncn([C@@H]2C=C(CO)[C@@H](O)[C@H]2O)n1 [Compound 13]	No activity	No activity	–
NC(=O)c1cn([C@@H]2C=C(CO)[C@@H](O)[C@H]2O)cn1 [Compound 14]	No activity	No activity	–
CC1(C)O[C@@H]2[C@H](O1)C(COC(c1ccccc1)(c1ccccc1)c1ccccc1)=C[C@@H]2O [Compound 15]	No activity	No activity	–
CC1(C)O[C@@H]2[C@H](O1)C(COC(c1ccccc1)(c1ccccc1)c1ccccc1)=C[C@H]2n1cnc2c(N)ncnc21 [Compound 16]	No activity	No activity	–
COC(=O)c1cn([C@@H]2C=C(COC(c3ccccc3)(c3ccccc3)c3ccccc3)[C@H]3OC(C)(C)O[C@H]32)cn1 [Compound 17]	No activity	No activity	–
Cc1cn([C@@H]2C=C(COC(c3ccccc3)(c3ccccc3)c3ccccc3)[C@H]3OC(C)(C)O[C@H]32)c(=O)n(C(=O)c2ccccc2)c1=O [Compound 18]	No activity	No activity	–
CC1(C)O[C@@H]2[C@H](O1)C(COC(c1ccccc1)(c1ccccc1)c1ccccc1)=C[C@H]2n1ccc(=O)n(C(=O)c2ccccc2)c1=O [Compound 19]	No activity	No activity	–
CC1(C)O[C@@H]2[C@H](O1)C(COC(c1ccccc1)(c1ccccc1)c1ccccc1)=C[C@H]2n1cnc2c(Cl)ncnc21 [Compound 20]	No activity	No activity	–
Nc1nccc2c1ncn2[C@@H]1C=C(CO)[C@@H](O)[C@H]1O [Compound 22, 3-Deazaneplanocin A, reference compound]	–	–	65
CC1(C)O[C@@H]2[C@H](O1)C(CO)=C[C@H]2n1cnc2c(N)nccc21 [Compound 23, 2′,3′-O-Isopropylidene-3-deazaneplanocin A]	–	No activity	25
Cl.Nc1nccc2c1ncn2[C@@H]1C[C@H](CO)[C@@H](O)[C@H]1O [Compound 24, 3-Deazaaristeromycin hydrochloride]	28%	70%	60
CC1=C[C@@H](n2cnc3c(N)ncnc32)[C@H](O)[C@@H]1O [Compound 26, (1S,2R,5R)-5-(6-amino-9H-purin-9-yl)-3-methylcyclopent-3-ene-1,2-diol hydrochloride]	–	–	40
Nc1ncnc2c1ncn2[C@@H]1C=C(COC(=O)c2ccccc2)[C@@H](O)[C@H]1O [Compound 27, ((3R,4S,5R)-3-(6-amino-9H-purin-9-yl)-4,5-dihydroxycyclopent-1-enyl)methyl benzoate hydrochloride]	–	–	30
CC1(C)O[C@@H]2[C@H](O1)C(CO)=C[C@H]2n1cnc2c(N)ncnc21 [Compound 28]	No activity	No activity	–

— patent publication US20110237606A1, “3-Deazaneplanocin Derivatives” (AGENCY OF SCIENCE, TECHNOLOGY AND RESEARCH, priority 2008, published 2011)
